Reference: PMC5488252, “Specificity Effects of Amino Acid Substitutions in Promiscuous Hydrolases: Context‐Dependence of Catalytic Residue Contributions to Local Fitness Landscapes in Nearby Sequence Space” (Chembiochem, 2017)
Where a name gives a salt, the structure may show the parent alone.

How the values were obtained:
AkAS = type: biochemical; conditions: 30 °C
SaAS = tested on: T1, SaAS; assay: 4-nitrophenolate release at […] nm; type: biochemical; conditions: 30 °C; Bis-Tris propane or SID buffer
T1 construct: pASK-IBA5plus (Strep-tag), E. coli TOP10; source organism not spelt out in this text

| SMILES | Km (AkAS) | Km (SaAS) |
| --- | --- | --- |
| O=[N+]([O-])c1ccc(OP(=O)(O)O)cc1 [compound 1, phosphate monoester 1] | 17 mM | – |
| O=[N+]([O-])c1ccc(OS(=O)(=O)O)cc1 [compound 4, sulfate monoester 4] | – | 0.24 mM |
